# From patent US6861071B2, “Highly absorptive solid preparation” (Daiichi Pharmaceutical Co., Ltd., priority 2000, dated 2005)
# Test: Promotion of dissolution of sitafloxacin by tartaric acid
# Type: physicochemical
# Excerpt: Accordingly, tartaric acid is preferably added in an amount of 0.1 to 1 mole, preferably 1/6 mole to 0.7 mole, more preferably 0.25 to 0.5 mole, especially about 0.5 mole to 1 mole of a quinolone compound, particularly sitafloxacin.
smiles,measurement,setting,value
"N[C@@H]1CN(c2c(F)cc3c(=O)c(C(=O)O)cn([C@@H]4C[C@@H]4F)c3c2Cl)CC12CC2 [sitafloxacin, (−)-7-[(7S)-7-amino-5-azaspirol[2.4]heptan-5-yl]-8-chloro-6-fluoro-1-[(1R,2S)-2-fluoro-1-cyclopropyl]-1,4-dihydro-4-oxo-3-quinolinecarboxylic acid]",Effect for promoting dissolution of sitafloxacin,0.1 time molar amount (18.3 mg) of tartaric acid together with 500 mg of sitafloxacin (as an anhydrate),marked improving effects
same,Effect for promoting dissolution of sitafloxacin,0.5 time molar amount (92 mg) of tartaric acid in combination with 500 mg of sitafloxacin,effect becomes maximum
